Experimental data as given in ChEMBL document CHEMBL3885861, “Open TG-GATES”.

Species on record: Rattus norvegicus
Experiment: Open TG-GATES - Regimen: Single
Assay type: toxicity, organism-based, Sprague-Dawley
Parameters: regimen Single, gender Male, age 6 weeks
Conditions: in vivo, iv, route intravenous injection; for Bas / Eos / Fbg / Ht / Lym / MCHC / MCV / Mono / PT / Plat / RBC / Ret / WBC / APTT / Hb / MCH / Neu: tissue Blood; for KIDNEY_L / KIDNEY_R / KIDNEY_TOTAL: tissue Kidney; for LIVER: tissue Liver
[1] = 0 mg/kg, 3 h, dose level Control
[2] = 0 mg/kg, 3 h, tissue Plasma, dose level Control
[3] = 0 mg/kg, 6 h, dose level Control
[4] = 0 mg/kg, 6 h, tissue Plasma, dose level Control
[5] = 0 mg/kg, 9 h, dose level Control
[6] = 0 mg/kg, 9 h, tissue Plasma, dose level Control
[7] = 0 mg/kg, 24 h, dose level Control
[8] = 0 mg/kg, 24 h, tissue Plasma, dose level Control
[9] = 1 mg/kg, 3 h, dose level Middle
[10] = 1 mg/kg, 3 h, tissue Plasma, dose level Middle
[11] = 1 mg/kg, 6 h, dose level Middle
[12] = 1 mg/kg, 6 h, tissue Plasma, dose level Middle

## CISPLATIN
[1]
  TERMINAL_BW: 217.6 g
  Bas: 0%
  Eos: 1%
  Fbg: 292.4 mg/dL
  Ht: 40.6%
  Lym: 82.4%
  MCHC: 32.6%
  MCV: 65.7 fL
  Mono: 2.2%
  PT: 15.3 s
  Plat: 125.7 x10_4/uL
  RBC: 617.8 x10_4/ul
  Ret: 6.8%
  WBC: 111 x10_2/uL
  KIDNEY_L: 1 g
  KIDNEY_R: 1 g
  KIDNEY_TOTAL: 1.9 g
[2]
  ALP: 1441.2 IU/L
  ALT: 48.4 IU/L
  AST: 80.6 IU/L
  BUN: 13.6 mg/dL
  CRE: 0.2 mg/dL
  Ca: 11 mg/dL
  DBIL: 0 mg/dL
  IP: 8.7 mg/dL
  K: 4.2 meq/L
  LDH: 188.6 IU/L
  PL: 126.6 mg/dL
  RALB: 2.9 g/dL
  TBIL: 0.02 mg/dL
  TC: 71 mg/dL
  TG: 54.8 mg/dL
  TP: 5.4 g/dL
  gamma-GTP: 2 IU/L
[3]
  TERMINAL_BW: 210.4 g
  APTT: 22.8 s
  Bas: 0%
  Eos: 1%
  Fbg: 275.4 mg/dL
  Hb: 13 g/dL
  Ht: 39.7%
  Lym: 83.4%
  MCH: 21.1 pg
  MCHC: 32.7%
  MCV: 64.3 fL
  Mono: 3%
  Plat: 115.2 x10_4/uL
  RBC: 617.6 x10_4/ul
  Ret: 6.5%
  WBC: 152.3 x10_2/uL
  KIDNEY_L: 0.9 g
  KIDNEY_R: 1 g
  KIDNEY_TOTAL: 1.9 g
  LIVER: 9.2 g
[4]
  ALP: 1766.6 IU/L
  ALT: 44 IU/L
  AST: 76.8 IU/L
  BUN: 12.6 mg/dL
  CRE: 0.2 mg/dL
  DBIL: 0 mg/dL
  IP: 9.5 mg/dL
  K: 4.5 meq/L
  LDH: 165.8 IU/L
  Na: 139.2 meq/L
  PL: 128.6 mg/dL
  RALB: 2.8 g/dL
  TBIL: 0 mg/dL
  TC: 67.2 mg/dL
  TG: 81.6 mg/dL
  TP: 5.2 g/dL
  gamma-GTP: 1.6 IU/L
[5]
  TERMINAL_BW: 208.8 g
  APTT: 24.1 s
  Bas: 0%
  Eos: 0.6%
  Fbg: 257.6 mg/dL
  Hb: 13 g/dL
  Ht: 39.9%
  Lym: 79.8%
  MCHC: 32.7%
  MCV: 64 fL
  Mono: 2.4%
  Neu: 16.4%
  Plat: 119.1 x10_4/uL
  RBC: 623 x10_4/ul
  Ret: 5.8%
  WBC: 90.6 x10_2/uL
  KIDNEY_L: 0.9 g
  KIDNEY_R: 1 g
  KIDNEY_TOTAL: 1.9 g
  LIVER: 8.9 g
[6]
  ALP: 1337.6 IU/L
  ALT: 39.8 IU/L
  AST: 74.2 IU/L
  BUN: 12.8 mg/dL
  CRE: 0.1 mg/dL
  DBIL: 0 mg/dL
  GLC: 184.8 mg/dL
  K: 4.2 meq/L
  LDH: 139.8 IU/L
  Na: 139.8 meq/L
  PL: 130.2 mg/dL
  RALB: 2.9 g/dL
  TBIL: 0.02 mg/dL
  TP: 5.4 g/dL
  gamma-GTP: 1.6 IU/L
[7]
  TERMINAL_BW: 232.1 g
  APTT: 22.3 s
  Bas: 0%
  Eos: 1%
  Fbg: 282.6 mg/dL
  Ht: 40.2%
  Lym: 81.2%
  MCH: 21.1 pg
  MCV: 65 fL
  Mono: 2.8%
  Plat: 123 x10_4/uL
  RBC: 617.6 x10_4/ul
  Ret: 6.3%
  WBC: 84 x10_2/uL
  KIDNEY_L: 1 g
  KIDNEY_R: 1.1 g
  KIDNEY_TOTAL: 2.1 g
[8]
  ALP: 1431.4 IU/L
  ALT: 47.4 IU/L
  AST: 74.8 IU/L
  BUN: 17.2 mg/dL
  CRE: 0.2 mg/dL
  DBIL: 0 mg/dL
  IP: 7.7 mg/dL
  K: 4.4 meq/L
  LDH: 177.8 IU/L
  PL: 150.4 mg/dL
  RALB: 3 g/dL
  TBIL: 0.014 mg/dL
  TC: 80.2 mg/dL
  TG: 98.4 mg/dL
  TP: 5.6 g/dL
  gamma-GTP: 1.6 IU/L
[9]
  TERMINAL_BW: 215.5 g
  APTT: 22.6 s
  Bas: 0%
  Eos: 1%
  Fbg: 275.8 mg/dL
  Hb: 12.7 g/dL
  Ht: 38.9%
  Lym: 75%
  MCH: 21.1 pg
  MCHC: 32.7%
  MCV: 64.5 fL
  Mono: 2.6%
  Plat: 127.7 x10_4/uL
  RBC: 602.2 x10_4/ul
  Ret: 6.6%
  WBC: 89.5 x10_2/uL
  KIDNEY_L: 1 g
  KIDNEY_R: 1 g
  KIDNEY_TOTAL: 2 g
  LIVER: 10 g
[10]
  ALP: 1623.4 IU/L
  ALT: 38.8 IU/L
  BUN: 13 mg/dL
  CRE: 0.2 mg/dL
  DBIL: 0 mg/dL
  GLC: 175.4 mg/dL
  IP: 8.9 mg/dL
  K: 4.2 meq/L
  LDH: 152.2 IU/L
  Na: 139.6 meq/L
  PL: 132.4 mg/dL
  RALB: 2.8 g/dL
  TBIL: 0.014 mg/dL
  TC: 75 mg/dL
  TG: 80.6 mg/dL
  TP: 5.2 g/dL
  gamma-GTP: 1.4 IU/L
[11]
  TERMINAL_BW: 216 g
  APTT: 22.5 s
  Bas: 0%
  Eos: 1%
  Fbg: 275 mg/dL
  Hb: 13 g/dL
  Ht: 39.9%
  Lym: 77%
  MCHC: 32.6%
  MCV: 63.4 fL
  Mono: 3%
  Neu: 17.8%
  PT: 15.4 s
  Plat: 128.4 x10_4/uL
  RBC: 629.4 x10_4/ul
  Ret: 6.1%
  WBC: 106.4 x10_2/uL
  KIDNEY_L: 1 g
  KIDNEY_R: 1 g
  KIDNEY_TOTAL: 2 g
  LIVER: 9.4 g
[12]
  ALP: 1530.2 IU/L
  ALT: 42.8 IU/L
  AST: 75.8 IU/L
  CRE: 0.1 mg/dL
  DBIL: 0 mg/dL
  IP: 9.6 mg/dL
  K: 4.4 meq/L
  LDH: 159.6 IU/L
  Na: 138.6 meq/L
  PL: 135.6 mg/dL
  RALB: 2.9 g/dL
  TBIL: 0 mg/dL
  TC: 73.2 mg/dL
  TG: 92.2 mg/dL
  TP: 5.4 g/dL
  gamma-GTP: 2 IU/L
